Source: patent US6355799B1, “Substituted benzene compounds, process for their preparation, and herbicidal and defoliant compositions containing them” (ISK Americas Incorporated, priority 1997, dated 2002)

How the values were obtained:
Type in all cases: in vivo
[1] = system: large crabgrass (Digitaria sanguinalis, DIGSA); test: Pre-emerge test, greenhouse herbicide activity screening; settings: rating scale 0-100, 14 days after application
Outline: (§1)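 Fourteen days after spraying, crop and weed injury was graded visually from 0, no effect, to 100, every plant dead. Test substances were dissolved in acetone and applied at 15–1000 g ai/ha with a flat-fan nozzle. Application was either pre-emergence, one day after sowing, or post-emergence at the 2–3 leaf stage.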

[2] = system: velvetleaf (Abutilon theophrasti, ABUTH); test: as above; settings: rating scale 0-100, 14 days after application
Outline: as §1

[3] = system: common ragweed (Ambrosia artemisizfolia L., AMBEL); test: as above; settings: rating scale 0-100, 14 days after application
Outline: as §1

[4] = system: barnyardgrass (Echinochloa crus-galli, ECHCG); test: as above; settings: rating scale 0-100, 14 days after application
Outline: as §1

[5] = system: green foxtail (Setaria viridis, SETVI); test: as above; settings: rating scale 0-100, 14 days after application
Outline: as §1

[6] = system: ivyleaf morningglory (Ipomoea hederacea, IPOHE); test: as above; settings: rating scale 0-100, 14 days after application
Outline: as §1

[7] = system: johnsongrass (Sorghum halepense, SORHA); test: as above; settings: rating scale 0-100, 14 days after application
Outline: as §1

[8] = system: sicklepod (Cassia obtusifolia, CASOB); test: as above; settings: rating scale 0-100, 14 days after application
Outline: as §1

[9] = system: lambsquarters (Chenopodium album, CHEAL); test: as above; settings: rating scale 0-100, 14 days after application
Outline: as §1

[10] = system: field corn (Zea mays L., var. Dekalb 535, CORN); test: Pre-emerge test, crop safety; settings: rating scale 0-100, 14 days after application
Outline: (§2)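 Visual ratings on a 0-100 scale (0 no damage, 100 all plants dead) were taken at 14 days after treatment. Rates of 15-1000 g ai/ha in acetone, 187 l/ha, were sprayed onto soil one day after planting (pre-emerge) or onto 2-3 leaf plants with 0.25% v/v surfactant (post-emerge).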

[11] = system: upland rice (Oryza sp., var. Tebonnet, RICE); test: Pre-emerge test, crop safety; settings: rating scale 0-100, 14 days after application
Outline: as §2

[12] = system: large crabgrass (Digitaria sanguinalis, DIGSA); test: Post-emerge test, greenhouse herbicide activity screening; settings: rating scale 0-100 (0 no damage, 100 complete death), 14 days after application
Outline: (§3)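 Herbicidal damage is scored 0 (none) to 100 (complete plant death) two weeks after a simulated field spray. Rates span 15–1000 g ai/ha, delivered in acetone at 187 l/ha. For post-emergence treatments, plants have 2–3 leaves and the spray carries 0.25% v/v non-ionic surfactant.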

[13] = system: velvetleaf (Abutilon theophrasti, ABUTH); test: as above; settings: rating scale 0-100 (0 no damage, 100 complete death), 14 days after application
Outline: as §3

[14] = system: common ragweed (Ambrosia artemisizfolia L., AMBEL); test: as above; settings: rating scale 0-100 (0 no damage, 100 complete death), 14 days after application
Outline: as §3

[15] = system: barnyardgrass (Echinochloa crus-galli, ECHCG); test: as above; settings: rating scale 0-100 (0 no damage, 100 complete death), 14 days after application
Outline: as §3

[16] = system: green foxtail (Setaria viridis, SETVI); test: as above; settings: rating scale 0-100 (0 no damage, 100 complete death), 14 days after application
Outline: as §3

[17] = system: redroot pigweed (Amaranthus retroflexus, AMARE); test: as above; settings: rating scale 0-100 (0 no damage, 100 complete death), 14 days after application
Outline: as §3

[18] = system: ivyleaf morningglory (Ipomoea hederacea, IPOHE); test: as above; settings: rating scale 0-100 (0 no damage, 100 complete death), 14 days after application
Outline: as §3

[19] = system: johnsongrass (Sorghum halepense, SORHA); test: as above; settings: rating scale 0-100 (0 no damage, 100 complete death), 14 days after application
Outline: as §3

[20] = system: sicklepod (Cassia obtusifolia, CASOB); test: as above; settings: rating scale 0-100 (0 no damage, 100 complete death), 14 days after application
Outline: as §3

[21] = system: lambsquarters (Chenopodium album, CHEAL); test: as above; settings: rating scale 0-100 (0 no damage, 100 complete death), 14 days after application
Outline: as §3

[22] = system: field corn (Zea mays L., var. Dekalb 535, CORN); test: Post-emerge test, crop safety; settings: rating scale 0-100 (0 no damage, 100 complete death), 14 days after application
Outline: as §1

[23] = system: upland rice (Oryza sp., var. Tebonnet, RICE); test: Post-emerge test, crop safety; settings: rating scale 0-100 (0 no damage, 100 complete death), 14 days after application
Outline: as §1

[24] = system: redroot pigweed (Amaranthus retroflexus, AMARE); test: Pre-emerge test, greenhouse herbicide activity screening; settings: rating scale 0-100, 14 days after application
Outline: as §2

COc1c(Cl)cc(F)c(-n2c(=O)cc(C(F)(F)F)n(C)c2=O)c1CC(C)(Cl)C(=O)OCC(C)C (stereo not drawn) [14-40]
Pre-emerge herbicidal activity, phytotoxicity rating DIGSA ([1]; 63 g ai/ha): 60
Pre-emerge herbicidal activity, phytotoxicity rating DIGSA ([1]; 250 g ai/ha): 100
Pre-emerge herbicidal activity, phytotoxicity rating ABUTH ([2]; 63 g ai/ha): 100
Pre-emerge herbicidal activity, phytotoxicity rating ABUTH ([2]; 250 g ai/ha): 100
Pre-emerge herbicidal activity, phytotoxicity rating AMBEL ([3]; 63 g ai/ha): 30
Pre-emerge herbicidal activity, phytotoxicity rating AMBEL ([3]; 250 g ai/ha): 90
Pre-emerge herbicidal activity, phytotoxicity rating ECHCG ([4]; 63 g ai/ha): 10
Pre-emerge herbicidal activity, phytotoxicity rating ECHCG ([4]; 250 g ai/ha): 80
Pre-emerge herbicidal activity, phytotoxicity rating SETVI ([5]; 63 g ai/ha): 50
Pre-emerge herbicidal activity, phytotoxicity rating SETVI ([5]; 250 g ai/ha): 100
Pre-emerge herbicidal activity, phytotoxicity rating IPOHE ([6]; 63 g ai/ha): 0
Pre-emerge herbicidal activity, phytotoxicity rating IPOHE ([6]; 250 g ai/ha): 0
Pre-emerge herbicidal activity, phytotoxicity rating SORHA ([7]; 63 g ai/ha): 0
Pre-emerge herbicidal activity, phytotoxicity rating SORHA ([7]; 250 g ai/ha): 40
Pre-emerge herbicidal activity, phytotoxicity rating CASOB ([8]; 63 g ai/ha): 0
Pre-emerge herbicidal activity, phytotoxicity rating CASOB ([8]; 250 g ai/ha): 0
Pre-emerge herbicidal activity, phytotoxicity rating CHEAL ([9]; 63 g ai/ha): 95
Pre-emerge herbicidal activity, phytotoxicity rating CHEAL ([9]; 250 g ai/ha): 100
Pre-emerge phytotoxicity rating, crop damage CORN ([10]; 63 g ai/ha): 0
Pre-emerge phytotoxicity rating, crop damage CORN ([10]; 250 g ai/ha): 0
Pre-emerge phytotoxicity rating, crop damage RICE ([11]; 63 g ai/ha): 20
Pre-emerge phytotoxicity rating, crop damage RICE ([11]; 250 g ai/ha): 60
Post-emerge Herbicidal Activity, phytotoxicity rating DIGSA ([12]; Rate 63 g ai/ha): 20
Post-emerge Herbicidal Activity, phytotoxicity rating DIGSA ([12]; Rate 250 g ai/ha): 40
Post-emerge Herbicidal Activity, phytotoxicity rating ABUTH ([13]; Rate 63 g ai/ha): 90
Post-emerge Herbicidal Activity, phytotoxicity rating ABUTH ([13]; Rate 250 g ai/ha): 100
Post-emerge Herbicidal Activity, phytotoxicity rating AMBEL ([14]; Rate 63 g ai/ha): 90
Post-emerge Herbicidal Activity, phytotoxicity rating AMBEL ([14]; Rate 250 g ai/ha): 100
Post-emerge Herbicidal Activity, phytotoxicity rating ECHCG ([15]; Rate 63 g ai/ha): 100
Post-emerge Herbicidal Activity, phytotoxicity rating ECHCG ([15]; Rate 250 g ai/ha): 100
Post-emerge Herbicidal Activity, phytotoxicity rating SETVI ([16]; Rate 63 g ai/ha): 85
Post-emerge Herbicidal Activity, phytotoxicity rating SETVI ([16]; Rate 250 g ai/ha): 99
Post-emerge Herbicidal Activity, phytotoxicity rating AMARE ([17]; Rate 63 g ai/ha): 100
Post-emerge Herbicidal Activity, phytotoxicity rating AMARE ([17]; Rate 250 g ai/ha): 100
Post-emerge Herbicidal Activity, phytotoxicity rating IPOHE ([18]; Rate 63 g ai/ha): 30
Post-emerge Herbicidal Activity, phytotoxicity rating IPOHE ([18]; Rate 250 g ai/ha): 60
Post-emerge Herbicidal Activity, phytotoxicity rating SORHA ([19]; Rate 63 g ai/ha): 20
Post-emerge Herbicidal Activity, phytotoxicity rating SORHA ([19]; Rate 250 g ai/ha): 20
Post-emerge Herbicidal Activity, phytotoxicity rating CASOB ([20]; Rate 63 g ai/ha): 20
Post-emerge Herbicidal Activity, phytotoxicity rating CASOB ([20]; Rate 250 g ai/ha): 60
Post-emerge Herbicidal Activity, phytotoxicity rating CHEAL ([21]; Rate 63 g ai/ha): 100
Post-emerge Herbicidal Activity, phytotoxicity rating CHEAL ([21]; Rate 250 g ai/ha): 100
Post-emerge phytotoxicity rating CORN (crop damage) ([22]; Rate 63 g ai/ha): 35
Post-emerge phytotoxicity rating CORN (crop damage) ([22]; Rate 250 g ai/ha): 70
Post-emerge phytotoxicity rating RICE (crop damage) ([23]; Rate 63 g ai/ha): 15
Post-emerge phytotoxicity rating RICE (crop damage) ([23]; Rate 250 g ai/ha): 75
Pre-emerge herbicidal activity, phytotoxicity rating AMARE ([24]; 63 g ai/ha): 100
Pre-emerge herbicidal activity, phytotoxicity rating AMARE ([24]; 250 g ai/ha): 100
